These results are taken from paper PMC7664879, “Discovery of 12O—A Novel Oral Multi-Kinase Inhibitor for the Treatment of Solid Tumor” (Molecules, 2020).

What is called IC50 is the concentration needed to halve the response being measured. The term inhibition denotes the relative decrease from the control value, in per cent. A high value points to strong suppression.

Test [1] relates to SiHa. As to the kind of experiment: CCK-8 cell growth inhibition, SiHa. Format: cell-based, human. Conditions: Homo sapiens, SiHa; CCK-8 assay, 72-h incubation; read-out: Cell Lines IC50 SiHa. The method, then: (§1) In vitro anticancer screening of all newly synthesized compounds towards human solid tumor cells, cervical (SiHa) and ovarian (SKOV3) cancer cell lines, was carried out by standard CCK-8 assay with cisplatin as the positive control, as cisplatin is one of the most used chemotherapy drugs. […] The compound was further evaluated in a dose response study against a panel of solid tumor cells, including cervical cancer cell lines (SiHa and HeLa), ovarian cancer cell lines (SKOV3 and OVCAR-5), breast cancer cell lines (4T1 and MCF-7), lung cancer cell lines (A549 and H460) to test cytotoxic activity. The IC50 values were summarized in Table 2, including the cytotoxic activity of the cisplatin used as reference compound.
(§2) The viability of cells as determined using the CCK8 assay method. Cells were seeded (2000–3000 cells per well) in 96-well plates. After incubation for 24 h in serum-containing media, the cells were treated with drugs at different concentrations diluted with culture medium for 72 h at 37 °C with a 5% CO2 atmosphere. Then, 10 μL CCK8 regent (Promega, WI) was added to each well, and the plates were incubated for 1–4 h at 37 °C. Finally, absorbance values of test wells (AS), control wells (AC) and blank wells (Ab) at 450 nm were read using the Microplate Reader (Promega, WI). Inhibition ratios were calculated as follows: [(AC − AS)/ (AC−Ab)] × 100%. IC50 values were calculated using GraphPad software.
(In general: Tetrazolium dyes change colour on reduction, which living cells bring about.)

Test [2] concerns MCF-7. The test is described as follows: CCK-8 cell growth inhibition, MCF-7. The class given is cell-based, human. Conditions: Homo sapiens, MCF7; breast cancer; CCK-8 assay, 72-h incubation. The method, then:
as §1
(§3) The viability of cells as determined using the CCK8 assay method. Cells were seeded (2000–3000 cells per well) in 96-well plates. After incubation for 24 h in serum-containing media, the cells were treated with drugs at different concentrations diluted with culture medium for 72 h at 37 °C with a 5% CO2 atmosphere. […] Finally, absorbance values of test wells (AS), control wells (AC) and blank wells (Ab) at 450 nm were read using the Microplate Reader (Promega, WI). Inhibition ratios were calculated as follows: [(AC − AS)/ (AC−Ab)] × 100%. IC50 values were calculated using GraphPad software.

The test system of test [3] is HeLa. The test is described as follows: CCK-8 cell growth inhibition, HeLa. The class given is cell-based, human. The settings on record: Homo sapiens, HeLa; cervical cancer; CCK-8 assay, 72-h incubation. Here is the method: as §1, §3
In test [4] the target is T1, KDR (VEGFR2) (Homo sapiens, UniProt P35968).
T1 construct: purchased Eurofins (KinaseProfiler service)
T1 sequence (P35968 20-1356): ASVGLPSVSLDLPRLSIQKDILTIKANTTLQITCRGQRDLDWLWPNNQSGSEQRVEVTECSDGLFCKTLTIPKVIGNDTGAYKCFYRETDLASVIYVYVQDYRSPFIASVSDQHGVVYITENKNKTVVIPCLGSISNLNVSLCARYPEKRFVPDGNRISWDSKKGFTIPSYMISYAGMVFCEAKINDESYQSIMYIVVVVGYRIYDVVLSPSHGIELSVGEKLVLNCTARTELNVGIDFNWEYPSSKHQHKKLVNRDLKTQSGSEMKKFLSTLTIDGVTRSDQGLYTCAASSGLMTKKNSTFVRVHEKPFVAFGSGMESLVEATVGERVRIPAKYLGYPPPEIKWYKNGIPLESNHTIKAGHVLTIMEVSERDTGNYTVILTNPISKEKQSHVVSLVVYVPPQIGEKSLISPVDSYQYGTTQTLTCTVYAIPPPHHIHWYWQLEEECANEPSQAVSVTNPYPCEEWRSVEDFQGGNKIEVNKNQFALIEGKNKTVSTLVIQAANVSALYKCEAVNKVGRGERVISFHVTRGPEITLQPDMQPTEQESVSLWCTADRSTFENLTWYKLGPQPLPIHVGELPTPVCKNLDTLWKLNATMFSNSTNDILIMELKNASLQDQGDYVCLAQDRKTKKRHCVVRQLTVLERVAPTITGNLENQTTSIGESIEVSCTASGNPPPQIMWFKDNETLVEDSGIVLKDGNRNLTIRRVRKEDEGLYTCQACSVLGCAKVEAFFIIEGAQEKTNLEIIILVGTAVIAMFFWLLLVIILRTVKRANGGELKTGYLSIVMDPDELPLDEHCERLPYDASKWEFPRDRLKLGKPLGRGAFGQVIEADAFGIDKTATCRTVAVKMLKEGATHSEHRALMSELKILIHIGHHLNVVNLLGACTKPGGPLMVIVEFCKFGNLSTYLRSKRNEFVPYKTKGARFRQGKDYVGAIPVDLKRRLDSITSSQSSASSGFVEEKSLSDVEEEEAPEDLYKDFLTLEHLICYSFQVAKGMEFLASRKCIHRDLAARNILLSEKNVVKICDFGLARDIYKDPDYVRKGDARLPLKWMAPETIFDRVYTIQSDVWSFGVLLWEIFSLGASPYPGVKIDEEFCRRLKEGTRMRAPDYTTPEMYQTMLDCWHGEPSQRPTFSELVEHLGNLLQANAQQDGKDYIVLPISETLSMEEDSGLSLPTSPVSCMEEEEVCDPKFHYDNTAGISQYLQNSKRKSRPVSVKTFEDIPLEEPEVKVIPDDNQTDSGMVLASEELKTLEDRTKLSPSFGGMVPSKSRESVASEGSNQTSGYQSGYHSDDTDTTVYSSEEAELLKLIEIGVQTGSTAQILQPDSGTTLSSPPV
The test is described as follows: Kinase inhibition assay (Eurofins KinaseProfiler). Format: biochemical. Conditions: ATP at Km. Here is the method: (§4) Kinase inhibition profiles were determined using KinaseProfiler services provided by Eurofins, and ATP concentrations used are the Km of corresponding kinases.
KDR (h) was incubated with 8 mM MOPS pH 7.0, 0.2 mM EDTA, 0.33 mg/mL myelin basic protein, 10 mM MgAcetate and [gamma-33P]-ATP.
(§5) All the reactions above were initiated by the addition of the Mg/ATP mix. After incubation for 40 min at room temperature, the reaction was stopped by the addition of phosphoric acid to a concentration of 0.5%. An amount of 10 µL of the reaction was then spotted onto a P30 filtermat and washed four times for 4 min in 0.425% phosphoric acid and once in methanol prior to drying and scintillation counting.

Test [5] addresses T2, CDK9/cyclin T1(h) (Homo sapiens, UniProt P50750).
T2 construct: purchased Eurofins (KinaseProfiler service)
The test is described as follows: Kinase inhibition assay (Eurofins KinaseProfiler). Format: biochemical. Conditions: ATP at Km. Here is the method: as §4
CDK9/cyclinT1 (h) was incubated with 8 mM MOPS pH 7.0, 0.2 mM EDTA, 100 uM […], 10 mM MgAcetate and [gamma-33P]-ATP (specific activity and concentration as required).
as §5

Test [6] concerns the target T3, c-Kit(h) (Homo sapiens, UniProt P10721).
T3 construct: purchased Eurofins (KinaseProfiler service)
The test is described as follows: Kinase inhibition assay (Eurofins KinaseProfiler). The class given is biochemical. Conditions: ATP at Km. Here is the method:
as §4
c-Kit (h) was incubated with 8 mM MOPS pH 7.0, 0.2 mM EDTA, 10 mM MnCl2, 0.1 mg/mL poly(Glu, Tyr) 4:1, 10 mM MgAcetate and [gamma-33P]-ATP.
as §5

For test [7], the system named is H460. As to the kind of experiment: CCK-8 cell growth inhibition, H460. The class given is cell-based, human. Conditions: Homo sapiens, NCI-H460; lung cancer; CCK-8 assay, 72-h incubation. The method, then: as §1, §3
In test [8] the test system is SKOV3. As to the kind of experiment: CCK-8 cell growth inhibition, SKOV3. Format: cell-based, human. The settings on record: Homo sapiens, SK-OV-3; CCK-8 assay, 72-h incubation; read-out: Cell Lines IC50 SKOV3. Here is the method:
as §1, §2

Test [9] deals with A549. The test is described as follows: CCK-8 cell growth inhibition, A549. Format: cell-based, human. Conditions: Homo sapiens, A549; lung cancer; CCK-8 assay, 72-h incubation. Here is the method: as §1, §3
The target of test [10] is T4, CDK7/cyclinH/MAT1(h) (Homo sapiens, UniProt P50613).
T4 construct: purchased Eurofins (KinaseProfiler service)
T4 sequence (P50613 whole entry): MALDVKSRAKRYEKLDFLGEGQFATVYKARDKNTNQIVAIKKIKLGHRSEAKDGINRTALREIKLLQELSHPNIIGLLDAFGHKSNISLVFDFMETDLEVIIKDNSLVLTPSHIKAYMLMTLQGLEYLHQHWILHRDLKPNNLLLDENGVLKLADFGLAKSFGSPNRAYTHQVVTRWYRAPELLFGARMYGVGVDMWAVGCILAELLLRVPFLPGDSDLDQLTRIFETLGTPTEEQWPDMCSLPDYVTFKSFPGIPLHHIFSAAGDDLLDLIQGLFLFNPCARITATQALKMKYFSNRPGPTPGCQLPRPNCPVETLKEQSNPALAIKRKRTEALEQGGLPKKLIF
T4 sequence (P51946 whole entry partner): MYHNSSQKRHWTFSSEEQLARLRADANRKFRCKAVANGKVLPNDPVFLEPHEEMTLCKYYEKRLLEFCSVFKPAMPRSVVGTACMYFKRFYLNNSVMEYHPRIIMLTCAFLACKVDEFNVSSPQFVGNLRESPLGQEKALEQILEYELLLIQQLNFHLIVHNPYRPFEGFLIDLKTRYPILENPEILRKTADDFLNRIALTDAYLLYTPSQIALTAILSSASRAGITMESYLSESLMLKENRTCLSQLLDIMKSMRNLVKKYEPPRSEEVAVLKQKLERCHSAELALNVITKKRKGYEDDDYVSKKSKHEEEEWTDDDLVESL
T4 sequence (P51948 whole entry partner): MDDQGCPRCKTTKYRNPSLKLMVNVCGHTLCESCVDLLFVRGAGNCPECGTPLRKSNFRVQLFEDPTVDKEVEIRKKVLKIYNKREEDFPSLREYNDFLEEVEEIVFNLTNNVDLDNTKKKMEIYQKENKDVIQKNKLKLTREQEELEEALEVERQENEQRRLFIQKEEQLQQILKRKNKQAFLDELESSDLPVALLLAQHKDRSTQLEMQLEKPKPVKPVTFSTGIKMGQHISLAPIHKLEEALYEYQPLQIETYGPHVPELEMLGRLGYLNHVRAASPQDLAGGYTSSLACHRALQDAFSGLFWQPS
The test is described as follows: Kinase inhibition assay (Eurofins KinaseProfiler). Format: biochemical. The settings on record: ATP at Km. Here is the method:
as §4
CDK7/cyclinH/MAT1 (h) was incubated with 8 mM MOPS pH 7.0, 0.2 mM EDTA, 500 uM peptide, 10 mM MgAcetate and [gamma-33P]-ATP (specific activity and concentration as required).
as §5

In test [11] the target is T5, Src(1-530)(h) (Homo sapiens, UniProt P12931).
T5 construct: Src (1-530) (h) was incubated with; purchased Eurofins (KinaseProfiler service)
T5 sequence (P12931 1-530): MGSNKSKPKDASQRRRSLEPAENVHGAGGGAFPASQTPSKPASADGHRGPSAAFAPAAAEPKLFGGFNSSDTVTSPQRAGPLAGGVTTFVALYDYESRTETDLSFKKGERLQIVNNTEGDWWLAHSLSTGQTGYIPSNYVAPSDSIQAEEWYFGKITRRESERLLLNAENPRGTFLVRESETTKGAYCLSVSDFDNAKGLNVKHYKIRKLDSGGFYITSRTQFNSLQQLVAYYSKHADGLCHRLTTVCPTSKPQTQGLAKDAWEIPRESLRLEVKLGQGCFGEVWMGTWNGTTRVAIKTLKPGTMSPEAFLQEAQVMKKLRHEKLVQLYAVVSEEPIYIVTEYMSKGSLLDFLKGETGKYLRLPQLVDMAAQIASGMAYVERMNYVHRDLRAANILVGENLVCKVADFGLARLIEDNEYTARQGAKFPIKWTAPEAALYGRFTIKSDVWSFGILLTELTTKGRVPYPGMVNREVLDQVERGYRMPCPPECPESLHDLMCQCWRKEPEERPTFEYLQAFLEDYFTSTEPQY
The test is described as follows: Kinase inhibition assay (Eurofins KinaseProfiler). Format: biochemical. The settings on record: ATP at Km. Here is the method: as §4
Src (1-530) (h) was incubated with 8 mM MOPS pH 7.0, 0.2 mM EDTA, 500 uM GGEEEEYFELVKKKK, 10 mM MgAcetate and [gamma-33P]-ATP.
as §5

T2 sequence (P50750 whole entry): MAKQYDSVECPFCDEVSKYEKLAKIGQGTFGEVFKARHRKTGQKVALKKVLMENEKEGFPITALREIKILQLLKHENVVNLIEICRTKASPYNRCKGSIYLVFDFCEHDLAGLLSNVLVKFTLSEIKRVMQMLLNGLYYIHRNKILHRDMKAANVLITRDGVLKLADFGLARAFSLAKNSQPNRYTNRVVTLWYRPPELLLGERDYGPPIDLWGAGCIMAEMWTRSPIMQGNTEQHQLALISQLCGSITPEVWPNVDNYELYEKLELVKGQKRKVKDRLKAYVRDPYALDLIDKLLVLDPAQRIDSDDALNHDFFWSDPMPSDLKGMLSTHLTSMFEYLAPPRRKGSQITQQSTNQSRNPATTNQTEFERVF
T2 sequence (O60563 whole entry partner): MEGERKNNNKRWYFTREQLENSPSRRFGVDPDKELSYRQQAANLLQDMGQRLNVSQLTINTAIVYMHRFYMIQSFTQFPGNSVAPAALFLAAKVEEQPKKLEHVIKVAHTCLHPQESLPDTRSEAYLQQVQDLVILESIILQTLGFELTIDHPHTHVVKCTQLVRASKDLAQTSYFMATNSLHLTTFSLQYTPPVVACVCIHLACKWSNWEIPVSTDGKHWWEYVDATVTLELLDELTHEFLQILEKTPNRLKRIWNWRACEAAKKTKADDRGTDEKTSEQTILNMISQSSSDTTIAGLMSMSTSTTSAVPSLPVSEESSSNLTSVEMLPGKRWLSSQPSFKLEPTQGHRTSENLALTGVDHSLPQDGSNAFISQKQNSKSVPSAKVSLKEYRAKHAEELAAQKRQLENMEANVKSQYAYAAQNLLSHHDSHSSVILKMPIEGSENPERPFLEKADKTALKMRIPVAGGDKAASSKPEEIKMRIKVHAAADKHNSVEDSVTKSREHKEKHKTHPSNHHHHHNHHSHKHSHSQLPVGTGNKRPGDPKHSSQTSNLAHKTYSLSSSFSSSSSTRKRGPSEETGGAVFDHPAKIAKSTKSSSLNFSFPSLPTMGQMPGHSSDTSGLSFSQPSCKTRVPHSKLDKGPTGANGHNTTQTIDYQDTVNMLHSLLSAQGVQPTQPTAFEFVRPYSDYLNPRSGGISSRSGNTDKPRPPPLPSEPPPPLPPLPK
T3 sequence (P10721 26-976): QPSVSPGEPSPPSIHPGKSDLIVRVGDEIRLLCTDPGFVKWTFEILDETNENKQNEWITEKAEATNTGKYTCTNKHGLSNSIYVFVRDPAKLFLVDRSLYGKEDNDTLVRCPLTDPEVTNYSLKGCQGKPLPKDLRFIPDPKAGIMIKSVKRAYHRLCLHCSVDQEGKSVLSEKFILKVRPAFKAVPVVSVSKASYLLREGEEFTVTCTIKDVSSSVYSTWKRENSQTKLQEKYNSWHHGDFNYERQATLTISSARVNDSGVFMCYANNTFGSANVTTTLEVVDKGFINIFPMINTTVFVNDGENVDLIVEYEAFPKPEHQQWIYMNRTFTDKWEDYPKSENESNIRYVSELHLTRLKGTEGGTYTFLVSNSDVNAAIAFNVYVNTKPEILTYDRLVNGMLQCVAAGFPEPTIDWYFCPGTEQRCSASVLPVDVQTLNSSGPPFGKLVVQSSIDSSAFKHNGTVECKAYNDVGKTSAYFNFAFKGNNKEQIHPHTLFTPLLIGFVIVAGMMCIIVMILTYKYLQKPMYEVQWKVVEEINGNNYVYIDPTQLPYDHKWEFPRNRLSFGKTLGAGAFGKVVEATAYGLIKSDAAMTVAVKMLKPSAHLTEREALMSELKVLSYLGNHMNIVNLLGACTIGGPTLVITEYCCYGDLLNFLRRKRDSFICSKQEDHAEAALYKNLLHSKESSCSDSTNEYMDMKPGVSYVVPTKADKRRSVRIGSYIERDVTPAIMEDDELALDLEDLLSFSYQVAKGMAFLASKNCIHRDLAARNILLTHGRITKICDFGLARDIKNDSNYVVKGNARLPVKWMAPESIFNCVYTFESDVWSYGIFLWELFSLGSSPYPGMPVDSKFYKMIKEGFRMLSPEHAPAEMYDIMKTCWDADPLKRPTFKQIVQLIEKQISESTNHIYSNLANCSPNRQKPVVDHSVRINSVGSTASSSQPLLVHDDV

Regarding `CC(C)n1nnc2ccc(-c3nc(Nc4ccc(CNC(=O)C5(C(=O)Nc6ccccc6)CC5)cc4)ncc3F)cc21` [12O], the IC50 in test [1] turned out to be 9 nM; in test [2], 10 nM; in test [3] it was 24 nM; in [5], 9 nM; in test [7], 41 nM; in test [8] it was 29 nM. The molecule also had an IC50 in test [9] of 35 nM. Further, the inhibition at 1 µM in [4] turned out to be 81%; in test [5] (1 µM), 100%; in test [6], 15%; in [10], 53%; in test [11] it was 46%.
